Patent US20200239561A1, “NODAL REGULATION OF CANCER DRUG RESISTANCE GENE” (TaiRx Inc., priority 2019, published 2020)

Experiments:
Nodal = Nodal in experimental TNBC models after doxorubicin; conditions: three experimental TNBC models expressing high levels of Nodal
Nodal protein [1] = assay: Western blot of Nodal protein expression in SK-MEL28 melanoma cells; assay type: cell-based, human; conditions: 72 hours treatment
Protocol: (§1) Human metastatic melanoma cell lines C8161, SK-MEL28 and A375SM-L1 and melanocytes were treated with anti-Nodal or anti-ABCA1 antibodies followed by secondary fluorescent antibodies. (A) Cells were viewed using a Zeiss Axioskop 2 microscope and photomicrographs taken comparing immunofluorescence staining of the melanoma cells versus melanocytes (negative control) and cells treated with secondary antibody only (antibody control; magnification 63×). All three aggressive melanoma cell lines express both Nodal and ABCA1 proteins. (B) Furthermore, whole cell protein lysates were prepared from the C8161, SK-MEL28 and A375SM-L1 cells and Western blot analysis verified the expression of both Nodal and ABCA1 proteins at their appropriate molecular weight equivalence. β-Actin protein was used to determine the equal loading of total protein per sample per lane on the Western blot.
(§2) (A) After 72 hr treatment with WS65, an anti-Nodal inhibitory antibody, there is a 94% reduction in Nodal protein expression and 55% reduction in the ABCA1 protein expression. […] Similar treatment with WS65 results in a 55% decrease in Nodal protein expression and 38% decrease in ABCA1 protein expression while treatment with both CVM-1125 and WS65 for 72 hr appears to synergistically reduce the expression of Nodal protein by 81% and ABCA1 protein by 99%.

ABCA1 protein = assay: Western blot of ABCA1 protein expression in SK-MEL28 melanoma cells; assay type: cell-based, human; conditions: 72 hours treatment
Protocol: as §1, §2

Nodal protein [2] = assay: Western blot of Nodal protein (ProNodal) in acute lymphoblastic leukemia cell line REH; assay type: cell-based; conditions: REH cells, 72 hr treatment
Description: Treatment of the cells for 72 hr with CVM-1125 reduced Nodal protein expression by 38%, while under the same treatment regimen the drug Ara-c reduced Nodal protein expression by 51%, Ws65 reduced Nodal protein by 90%, a combination of CVM-1125 plus WS65 reduced Nodal protein by 75% and Ara-c plus WS65 reduced Nodal protein by 69%.

SMILES: COc1cccc2c1C(=O)c1c(O)c3c(c(O)c1C2=O)C[C@@](O)(C(=O)CO)C[C@@H]3O[C@H]1C[C@H](N)[C@H](O)[C@H](C)O1 [doxorubicin]
- effect on the Nodal target (Nodal): did not effectively diminish

SMILES: COc1ccc2[nH]c(-c3cccc(F)c3)cc(=O)c2c1O [CVM-1125]
- decrease in Nodal protein expression (Nodal protein [1]): 19%
- decrease in ABCA1 protein expression (ABCA1 protein): 14%
- reduced Nodal protein expression (Nodal protein [2]): 38%

SMILES: Nc1ccn([C@@H]2O[C@H](CO)[C@@H](O)[C@@H]2O)c(=O)n1 [Ara-c, reference compound]
- reduced Nodal protein expression (Nodal protein [2]): 51%
